From ChEMBL document CHEMBL5614414, “Discovery of novel arylpyridine derivatives for motile ciliogenesis” (Eur J Med Chem, 2024) come the findings set out here.

Each structure is given as a SMILES string. Calls of active or inactive are those of the source. The calls are words filed in the database; no cut-off is given here.

The species named for data set [1] is Danio rerio. The experiment in a line: Ex vivo activation of Foxj1-mediated motile ciliogenesis pathway in Tg(foxj1a:eGFP)hsc16 zebrafish TL embryo assessed as EGFP expression in spinal ependymal cells at 2.5 uM incubated for 24 hrs by fluorescent stereomicroscope analysis. The format is functional, cell-based.
For data set [2], the species on record is Danio rerio. The experiment in a line: Ex vivo activation of Foxj1-mediated motile ciliogenesis pathway in Tg(foxj1a:eGFP)hsc16 zebrafish TL embryo assessed as EGFP expression in spinal ependymal cells at 5 uM incubated for 24 hrs by fluorescent stereomicroscope analysis. The format is functional, cell-based.
For data set [3], the target named is Cytochrome P450 2C19 (Homo sapiens, UniProt P33261). The experiment in a line: Inhibition of human CYP2C19 using amitriptyline as substrate relative to control. It counts as ADME.
Data set [4] can be described thus: AUCt in male mouse at 5 mg/kg, po. The format is ADME, organism-based. Particulars: in vivo.
The nature of data set [5]: Cmax in male mouse at 5 mg/kg, po. It counts as ADME, organism-based. The conditions noted are these: in vivo.
Data set [6] in a line: Clearance in male mouse at 1 mg/kg, iv. It counts as ADME, organism-based. The conditions noted are these: in vivo.
The nature of data set [7]: AUCt in male mouse at 1 mg/kg, iv. The format is ADME, organism-based. Particulars: in vivo.
In data set [8] the test system is mTEC. Briefly: Ex vivo activation of Foxj1-mediated motile ciliogenesis pathway in wild type C57BL/6 mTEC (mouse tracheal epithelial cells) assessed as increase in multiciliated cells at 5 uM administered for 4 days starting from airlift interface day 0 with replacement of fresh media for every two days by DAPI staining based confocal laser microscopic analysis. It counts as functional, cell-based. The conditions noted are these: time 4.0 day.

Data set [9] in a line: Half life in male mouse at 1 mg/kg, iv. The format is ADME, organism-based. Particulars: in vivo.
Data set [10] can be described thus: Cytotoxicity against CHO-K1 cells. The format is toxicity, cell-based, Cricetulus griseus. The conditions noted are these: Chinese hamster.
Data set [11] in a line: Oral bioavailability in male mouse at 5 mg/kg. The conditions noted are these: in vivo. The format is ADME, organism-based.
Data set [12] in a line: Metabolic stability in rat liver microsomes assessed as compound remaining incubated for 30 mins. It counts as ADME, Microsome. Particulars: read-out: Stability. (In general: Liver microsomes are a subcellular fraction often used to study metabolism.)
For data set [13], the system named is Mus musculus. Briefly: Restoration of motile cilia in porcine pancreatic elastase-induced COPD C57BL/6 mouse model assessed as decrease in airway damage in trachea at 2 mg/kg, ip administered every other day for 2 weeks and measured 24 hrs post last dose by DAPI staining based confocal microscopic analysis. The format is functional, organism-based.
A short description of data set [14]: Volume of distribution at steady state in male mouse at 1 mg/kg, iv. It counts as ADME, organism-based. The conditions noted are these: in vivo, read-out: Vdss.
A short description of data set [15]: Cytotoxicity against human HFL1 cells. It counts as toxicity, cell-based.
Data set [16] in a line: AUCinfinity in male mouse at 1 mg/kg, iv. It counts as ADME, organism-based. The conditions noted are these: in vivo.
Data set [17] is described as follows: AUCinfinity in male mouse at 5 mg/kg, po. The conditions noted are these: in vivo. It counts as ADME, organism-based.
Data set [18] is described as follows: Cytotoxicity against mouse L929 cells. It counts as toxicity, cell-based.
In data set [19] the target is T1, Cytochrome P450 1A2 (Homo sapiens, UniProt P05177).
T1 sequence (P05177 whole entry): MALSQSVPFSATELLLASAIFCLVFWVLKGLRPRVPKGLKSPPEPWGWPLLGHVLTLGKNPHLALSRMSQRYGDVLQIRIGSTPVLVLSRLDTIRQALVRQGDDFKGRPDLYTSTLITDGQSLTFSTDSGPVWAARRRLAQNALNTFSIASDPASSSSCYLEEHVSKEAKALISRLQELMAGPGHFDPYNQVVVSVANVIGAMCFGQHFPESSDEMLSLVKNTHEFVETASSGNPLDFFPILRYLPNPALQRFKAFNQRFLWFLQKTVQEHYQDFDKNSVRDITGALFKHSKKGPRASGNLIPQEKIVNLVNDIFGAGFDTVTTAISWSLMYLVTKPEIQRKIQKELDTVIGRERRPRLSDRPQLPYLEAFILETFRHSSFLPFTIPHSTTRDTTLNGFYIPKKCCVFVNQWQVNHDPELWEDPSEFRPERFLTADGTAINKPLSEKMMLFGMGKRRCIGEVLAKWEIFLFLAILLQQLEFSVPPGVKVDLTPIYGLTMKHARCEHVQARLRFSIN
Briefly: Inhibition of human CYP1A2 using alpha-naphthoflavone as […] relative to control. The format is ADME.

The nature of data set [20]: Cytotoxicity against mouse NIH3T3 cells. The format is toxicity, cell-based.
The nature of data set [21]: Tmax in male mouse at 5 mg/kg, po. It counts as ADME, organism-based. Particulars: in vivo.
Data set [22] addresses hERG (Homo sapiens, UniProt Q12809). Briefly: Inhibition of hERG at 10 uM relative to control. It counts as toxicity. (In general: The hERG channel carries a current that helps repolarise heart muscle cells.)
The subject of data set [23] is Mus musculus. The experiment in a line: Restoration of motile cilia in porcine pancreatic elastase-induced COPD C57BL/6 mouse model assessed as increase in motile cilia in trachea at 2 mg/kg, ip administered every other day for 2 weeks and measured 24 hrs post last dose by DAPI staining based confocal microscopic analysis. It counts as functional, organism-based.

Data set [24] deals with Cytochrome P450 3A4 (Homo sapiens, UniProt P08684). The experiment in a line: Inhibition of human CYP3A4 using ketoconazole as […] relative to control. It counts as ADME.
For data set [25], the target named is Cytochrome P450 2C9 (Homo sapiens, UniProt P11712). The experiment in a line: Inhibition of human CYP2C9 using sulfaphenazole as […] relative to control. The format is ADME.
Data set [26] in a line: Metabolic stability in mouse liver microsomes assessed as compound remaining incubated for 30 mins. The format is ADME, Microsome. The conditions noted are these: read-out: Stability.
Data set [27] can be described thus: Half life in male mouse at 5 mg/kg, po. Particulars: in vivo. It counts as ADME, organism-based.
A short description of data set [28]: Cytotoxicity against African green monkey Vero cells. It counts as toxicity, cell-based, Chlorocebus sabaeus.
A short description of data set [29]: Metabolic stability in human liver microsomes assessed as compound remaining incubated for 30 mins. The conditions noted are these: read-out: Stability. The format is ADME, Microsome.
The target in data set [30] is Cytochrome P450 2D6 (Homo sapiens, UniProt P10635). Briefly: Inhibition of human CYP2D6 using quinidine as […] relative to control. The format is ADME.
Chain of Cytochrome P450 2D6 (P10635 whole entry): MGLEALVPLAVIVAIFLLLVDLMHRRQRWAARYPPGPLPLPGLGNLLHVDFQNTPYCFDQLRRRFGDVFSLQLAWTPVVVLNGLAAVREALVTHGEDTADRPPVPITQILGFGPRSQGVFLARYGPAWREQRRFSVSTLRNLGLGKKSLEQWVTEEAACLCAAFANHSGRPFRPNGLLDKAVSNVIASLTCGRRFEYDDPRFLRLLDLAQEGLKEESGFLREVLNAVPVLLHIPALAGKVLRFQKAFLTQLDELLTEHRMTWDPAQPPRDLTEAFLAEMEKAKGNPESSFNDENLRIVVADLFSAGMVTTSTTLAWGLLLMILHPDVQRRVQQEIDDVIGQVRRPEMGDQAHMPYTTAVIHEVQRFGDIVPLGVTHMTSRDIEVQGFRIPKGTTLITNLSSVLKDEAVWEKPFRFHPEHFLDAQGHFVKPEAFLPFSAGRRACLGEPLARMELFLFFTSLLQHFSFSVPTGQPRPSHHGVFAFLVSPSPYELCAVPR

Chain of Cytochrome P450 2C19 (P33261 whole entry): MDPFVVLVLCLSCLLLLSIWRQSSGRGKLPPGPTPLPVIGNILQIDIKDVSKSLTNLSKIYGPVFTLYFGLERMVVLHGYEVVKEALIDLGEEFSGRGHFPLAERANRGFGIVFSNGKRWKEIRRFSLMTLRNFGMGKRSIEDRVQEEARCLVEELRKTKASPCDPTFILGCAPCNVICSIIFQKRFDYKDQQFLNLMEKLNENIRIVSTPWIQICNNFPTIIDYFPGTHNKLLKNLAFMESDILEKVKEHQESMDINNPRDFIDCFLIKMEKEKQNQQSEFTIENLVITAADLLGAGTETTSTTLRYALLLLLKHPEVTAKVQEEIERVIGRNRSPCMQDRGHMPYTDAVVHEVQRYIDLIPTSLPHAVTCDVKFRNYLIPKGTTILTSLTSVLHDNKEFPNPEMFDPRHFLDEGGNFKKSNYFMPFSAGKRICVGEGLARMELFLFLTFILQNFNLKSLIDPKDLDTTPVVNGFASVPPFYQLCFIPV
Chain of Cytochrome P450 2C9 (P11712 whole entry): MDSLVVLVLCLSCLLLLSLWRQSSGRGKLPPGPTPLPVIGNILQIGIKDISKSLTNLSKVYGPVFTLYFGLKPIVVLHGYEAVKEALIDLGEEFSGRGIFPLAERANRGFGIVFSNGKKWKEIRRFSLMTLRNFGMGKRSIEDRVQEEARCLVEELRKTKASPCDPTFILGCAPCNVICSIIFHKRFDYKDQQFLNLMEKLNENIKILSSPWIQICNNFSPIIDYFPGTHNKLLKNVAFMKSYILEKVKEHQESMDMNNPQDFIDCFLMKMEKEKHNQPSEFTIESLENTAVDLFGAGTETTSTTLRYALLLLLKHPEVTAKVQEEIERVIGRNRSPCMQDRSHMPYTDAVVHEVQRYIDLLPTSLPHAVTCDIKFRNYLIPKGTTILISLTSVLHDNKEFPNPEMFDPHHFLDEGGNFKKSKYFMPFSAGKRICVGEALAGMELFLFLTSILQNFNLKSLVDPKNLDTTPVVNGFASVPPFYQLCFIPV
Chain of hERG (Q12809 whole entry): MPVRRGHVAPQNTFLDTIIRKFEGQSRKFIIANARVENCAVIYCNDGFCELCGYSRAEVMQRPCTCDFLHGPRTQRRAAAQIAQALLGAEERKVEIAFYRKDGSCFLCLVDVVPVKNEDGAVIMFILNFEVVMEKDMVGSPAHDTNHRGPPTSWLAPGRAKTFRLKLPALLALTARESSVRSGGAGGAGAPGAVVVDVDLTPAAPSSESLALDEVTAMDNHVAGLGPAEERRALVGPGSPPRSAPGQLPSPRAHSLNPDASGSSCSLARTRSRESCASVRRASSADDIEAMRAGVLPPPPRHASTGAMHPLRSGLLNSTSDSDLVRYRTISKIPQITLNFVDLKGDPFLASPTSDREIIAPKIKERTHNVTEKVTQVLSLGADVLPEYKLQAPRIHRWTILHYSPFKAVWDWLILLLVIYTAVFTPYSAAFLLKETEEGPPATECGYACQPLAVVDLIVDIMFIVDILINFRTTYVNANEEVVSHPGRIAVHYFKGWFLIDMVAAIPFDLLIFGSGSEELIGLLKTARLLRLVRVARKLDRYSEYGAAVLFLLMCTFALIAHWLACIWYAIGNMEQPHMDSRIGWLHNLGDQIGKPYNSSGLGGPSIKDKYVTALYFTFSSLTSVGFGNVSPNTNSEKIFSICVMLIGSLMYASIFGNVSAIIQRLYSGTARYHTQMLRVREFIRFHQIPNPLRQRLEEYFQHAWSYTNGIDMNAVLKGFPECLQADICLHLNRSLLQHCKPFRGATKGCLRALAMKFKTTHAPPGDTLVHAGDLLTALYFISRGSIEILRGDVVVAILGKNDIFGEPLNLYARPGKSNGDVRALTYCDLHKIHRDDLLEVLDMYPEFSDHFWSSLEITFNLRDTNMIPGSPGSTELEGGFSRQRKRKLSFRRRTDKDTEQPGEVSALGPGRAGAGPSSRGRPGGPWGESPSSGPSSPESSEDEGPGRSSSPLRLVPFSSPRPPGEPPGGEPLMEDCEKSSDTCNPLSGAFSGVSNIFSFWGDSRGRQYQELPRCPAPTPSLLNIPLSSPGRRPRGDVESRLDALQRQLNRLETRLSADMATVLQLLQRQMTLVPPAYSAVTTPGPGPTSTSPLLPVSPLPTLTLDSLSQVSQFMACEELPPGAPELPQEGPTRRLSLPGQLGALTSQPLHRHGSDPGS
Chain of Cytochrome P450 3A4 (P08684 whole entry): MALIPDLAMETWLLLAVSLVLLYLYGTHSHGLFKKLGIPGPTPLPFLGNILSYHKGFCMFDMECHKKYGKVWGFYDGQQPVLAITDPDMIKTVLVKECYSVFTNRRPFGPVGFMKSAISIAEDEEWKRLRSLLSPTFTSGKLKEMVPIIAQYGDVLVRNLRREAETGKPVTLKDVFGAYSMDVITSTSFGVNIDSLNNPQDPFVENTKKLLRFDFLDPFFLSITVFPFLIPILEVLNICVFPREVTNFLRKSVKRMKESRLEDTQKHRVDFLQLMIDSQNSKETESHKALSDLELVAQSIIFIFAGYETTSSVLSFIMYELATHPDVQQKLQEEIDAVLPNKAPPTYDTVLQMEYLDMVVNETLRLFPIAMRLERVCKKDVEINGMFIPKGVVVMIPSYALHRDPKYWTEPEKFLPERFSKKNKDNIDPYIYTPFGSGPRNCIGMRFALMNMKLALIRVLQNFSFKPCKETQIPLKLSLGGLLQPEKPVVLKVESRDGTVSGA

`CC(CC(=O)O)n1cc(-c2cnc(NC(C)(C)C)c(-c3nc4ccccc4o3)c2)cn1` (configuration not stated): the result in [1] was Active.

`Nc1cccc(-c2cnc(N3CCOCC3)c(-c3nc4ccccc4o3)c2)c1`: in data set [2], the outcome was Active.

Consider `CC(C)(C)Nc1ncc(-c2cn[nH]c2)cc1-c1nc2ccccc2o1`, for which the outcome in [2] was Active.

As for `CC(C)(C)Nc1ncc(-c2cccc(N)c2)cc1-c1nc2ccccc2o1`, in [2], the outcome was Active.

Regarding `Nc1cccc(-c2cnc(N3CCCCC3)c(-c3nc4ccccc4o3)c2)c1`, the outcome in data set [2] was Active.

On to `CNc1ncc(-c2cccc(N)c2)cc1-c1nc2ccccc2o1`, for which, in data set [2], the outcome was Active.

One may read the AUC(0-t) as the area under the concentration-time curve up to a stated or last time point. The Cmax is the peak of the concentration-time curve. Broadly, the clearance is the rate of elimination divided by the concentration. What is called half-life is how long it takes for the measured level to halve. What is called IC50 is the concentration that gives 50% inhibition. The term bioavailability denotes the share of a dose that reaches the circulation, judged against a reference dose that is usually intravenous. Usually AUC(0-inf) stands for the area under the concentration-time curve extrapolated to infinity. For orientation: Tmax means the time from dosing to the highest level. In general, inhibition refers to the change of the read-out against control, counted positive when it falls. Turning to `CC(C)(C)Nc1ncc(-c2cnn(C(C)(C)CC(=O)O)c2)cc1-c1nc2ccccc2o1`, the “inhibition (INH)” value in [3] is 17.4%; in data set [19] it was 1.17%; in [24] it was under 1%; in data set [25], 31.9%; in [30], under 1%. In addition, the exposure AUC(0-t) was determined as 53100 ng·h/mL in data set [4] and 12500 ng·h/mL in [7]. For the same molecule, in data set [5], the Cmax amounted to 5160 ng/mL. For the same molecule, the clearance in data set [6] was 1.33 mL/min/kg. In addition, the result in data set [1], in data set [8], in data set [13], in [2] and in data set [23] was Active. In addition, the half-life in data set [9] was 3.51 h; in [27], 3.55 h. The IC50 in [10], in [15], in data set [18], in [20] and in [28] was over 100 µM in each case. In [11], this molecule returned a bioavailability of 85%. In addition, the remaining at 0.5 h in data set [12], in [26] and in data set [29] was over 99.9% throughout. In addition, in data set [14], the Vd was determined as 0.4 L/kg. Moreover, the AUC(0-inf) in data set [16] was 12600 ng·h/mL; in data set [17], 62900 ng·h/mL. For the same molecule, the Tmax in [21] came to 3.67 h. In data set [22], this molecule came in with an inhibition at 10 µM of under 1%.

With `CC(C)(C)Nc1ncc(-c2cnn(CCC(=O)O)c2)cc1-c1nc2ccccc2o1`, the result in [1] was Active.

For `Nc1cccc(-c2cnc(N3CCNCC3)c(-c3nc4ccccc4o3)c2)c1`, in [2], the result was Active.

`Nc1cccc(-c2cnc(N)c(-c3nc4ccccc4o3)c2)c1`: the result in data set [2] was inactive.

With `CN1CCN(c2ncc(-c3cccc(N)c3)cc2-c2nc3ccccc3o2)CC1`, the result in [2] was Active.

Regarding `CC(C)(C)Nc1ncc(-c2ccccn2)cc1-c1nc2ccccc2o1`, the result in data set [2] was Active.

`CCCCNc1ncc(-c2cccc(N)c2)cc1-c1nc2ccccc2o1`: the outcome in data set [2] was Active.

Turning to `CC(C)(C)Nc1ncc(-c2ccccc2)cc1-c1nc2ccccc2o1`, the outcome in data set [2] was Active.

Regarding `CC(C)(C)Nc1ncc(-c2ccsc2)cc1-c1nc2ccccc2o1`, the outcome in [2] was Active.

On to `CC(C)(C)Nc1ncc(-c2ccoc2)cc1-c1nc2ccccc2o1`, for which the result in [2] was Active.

For the molecule `CC(C)(C)Nc1ncc(-c2cccnc2)cc1-c1nc2ccccc2o1`, the outcome in data set [2] was Active.

As for `CC(C)(C)Nc1ncc(-c2cnn(C(C)(C)CC(=O)O)c2)cc1-c1nc2ccccc2[nH]1`, in data set [2], the outcome was Active.
